# Experimental data taken from US3959351A, “Haloalkylbenzoyl esters of di-lower alkylamino alkanols and quaternary lower alkyl salts thereof” (priority 1972, dated 1976).
# Target: electric eel cholinesterase (Type V) (Electrophorus electricus, UniProt O42275)
# Experiment: Inhibition of electric eel cholinesterase (Type V) by substituted benzoyl cholines (method of Rappaport et al.)
# Format: biochemical
# Details: incubated with enzyme at room temperature (22°) for 40 minutes
# Description: As stated heretofore, the compounds of the present invention when tested for inhibition of eel cholinesterase show good activity at rather low concentrations. Inhibition of cholinesterase activity of generally recognized as having positive correlation which insecticidal activity.
# INHIBITION OF ELECTRIC EEL CHOLINESTERASE (TYPE V)
# BY SUBSTITUTED BENZOYL CHOLINES
# Activity Measurement Method:
# *Reagent incubated with enzyme at room temperature (22°) for 40
# [1] = 40 min, Bromomethyl- reagent type, concentration 10^-^4 M
# [2] = Bromomethyl- reagent type, concentration 10^-^6 M
# [3] = 40 min, Formyl- reagent type, concentration 10^-^4 M
# [4] = Formyl- reagent type, concentration 10^-^3 M
# [5] = Bromomethyl- reagent type, concentration 10^-^4 M
# [6] = Formyl- reagent type, concentration 10^-^4 M
# electric eel cholinesterase (Type V), sequence (O42275 24-633): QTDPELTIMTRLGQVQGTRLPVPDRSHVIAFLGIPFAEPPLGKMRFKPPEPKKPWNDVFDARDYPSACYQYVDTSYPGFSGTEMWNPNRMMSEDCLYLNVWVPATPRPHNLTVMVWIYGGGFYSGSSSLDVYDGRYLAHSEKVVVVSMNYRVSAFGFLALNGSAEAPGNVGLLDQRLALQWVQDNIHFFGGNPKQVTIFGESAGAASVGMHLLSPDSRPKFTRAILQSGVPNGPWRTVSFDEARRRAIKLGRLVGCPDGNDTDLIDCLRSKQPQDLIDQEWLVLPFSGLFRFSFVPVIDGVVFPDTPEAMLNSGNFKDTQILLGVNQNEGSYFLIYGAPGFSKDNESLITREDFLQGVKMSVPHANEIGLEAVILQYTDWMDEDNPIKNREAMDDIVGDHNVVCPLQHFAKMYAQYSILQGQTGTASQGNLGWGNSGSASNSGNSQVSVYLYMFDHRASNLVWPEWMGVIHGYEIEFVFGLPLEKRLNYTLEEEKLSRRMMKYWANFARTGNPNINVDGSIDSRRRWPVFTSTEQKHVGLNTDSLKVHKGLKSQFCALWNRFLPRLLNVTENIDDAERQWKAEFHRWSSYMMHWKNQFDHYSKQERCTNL
smiles,measurement,setting,value
"C[N+](C)(C)CCOC(=O)c1cccc(CBr)c1CBr.[I-] [2,3 Bromomethyl-, 2,3-di(bromomethyl)benzoyl choline iodide]",inhibition at 100 µM,[1],40%
same,INHIBITION,[2],None
"C[N+](C)(C)CCOC(=O)c1cccc(C=O)c1C=O.[I-] [2,3 Formyl-, 2,3-diformylbenzoyl choline iodide]",inhibition at 100 µM,[3],50%
same,INHIBITION,[4],Complete
"C[N+](C)(C)CCOC(=O)c1ccc(CBr)cc1CBr.[I-] [2,4 Bromomethyl-, 2,4-di(bromomethyl)benzoyl choline iodide]",INHIBITION,[5],Complete
same,INHIBITION,[2],None
"C[N+](C)(C)CCOC(=O)c1ccc(C=O)cc1C=O.[I-] [2,4 Formyl-, 2,4-diformylbenzoyl choline iodide]",inhibition at 100 µM,[3],50%
same,INHIBITION,[4],Complete
"C[N+](C)(C)CCOC(=O)c1cc(CBr)ccc1CBr.[I-] [2,5 Bromomethyl-, 2,5-di(bromomethyl)benzoyl choline iodide]",inhibition at 100 µM,[1],80%
same,INHIBITION,[2],None
"C[N+](C)(C)CCOC(=O)c1cc(C=O)ccc1C=O.[I-] [2,5 Formyl-, 2,5-diformylbenzoyl choline iodide]",inhibition at 100 µM,[3],50%
same,INHIBITION,[4],Complete
"C[N+](C)(C)CCOC(=O)c1ccc(CBr)c(CBr)c1 [3,4 Bromomethyl-, 3,4-di(bromomethyl)benzoyl choline iodide]",inhibition at 100 µM,[1],90%
same,inhibition at 1 µM,"40 min, Bromomethyl- reagent type, concentration 10^-^6 M",30%
"C[N+](C)(C)CCOC(=O)c1ccc(C=O)c(C=O)c1.[I-] [3,4 Formyl-, 3,4-diformylbenzoyl choline iodide]",inhibition at 100 µM,[3],25%
same,INHIBITION,[4],Complete
"C[N+](C)(C)CCOC(=O)c1cc(CBr)cc(CBr)c1.[I-] [3,5 Bromomethyl-, 3,5-di(bromomethyl)benzoyl choline iodide]",inhibition at 100 µM,[1],90%
same,INHIBITION,[2],None
"C[N+](C)(C)CCOC(=O)c1cc(C=O)cc(C=O)c1.[I-] [3,5 Formyl-, 3,5-diformylbenzoyl choline iodide]",INHIBITION,[4],Complete
same,INHIBITION,[6],Complete
"C[N+](C)(C)CCOC(=O)c1cccc(CBr)c1.[I-] [meta Bromomethyl-, m-bromomethyl benzoyl choline iodide]",INHIBITION,[5],None
same,INHIBITION,[2],None
"C[N+](C)(C)CCOC(=O)c1cccc(C=O)c1.[I-] [meta Formyl-, m-formylbenzoyl choline iodide]",inhibition at 1000 µM,"40 min, Formyl- reagent type, concentration 10^-^3 M",60%
same,INHIBITION,[6],None
"C[N+](C)(C)CCOC(=O)c1ccccc1CBr.[I-] [ortho Bromomethyl-, o-bromomethyl benzoyl choline iodide]",INHIBITION,[5],None
same,INHIBITION,[2],None
"C[N+](C)(C)CCOC(=O)c1ccccc1C=O.[I-] [ortho Formyl-, o-formylbenzoyl choline iodide]",INHIBITION,[4],None
same,INHIBITION,[6],None
"C[N+](C)(C)CCOC(=O)c1ccc(CBr)cc1.[I-] [para Bromomethyl-, para-bromomethyl benzoyl choline iodide]",INHIBITION,[5],Complete
same,INHIBITION,[2],None
"C[N+](C)(C)CCOC(=O)c1ccc(C=O)cc1.[Br-] [para Formyl-, p-Formyl benzoyl choline bromide]",INHIBITION,[4],Complete
same,INHIBITION,[6],None
